Data on eleven compounds can be found in patent US10130619B2, “Amido thiadiazole derivatives as NADPH oxidase inhibitors” (GENKYOTEX SUISSE SA, priority 2014, dated 2018).

Each structure is given as a SMILES string.

hNOX1, sequence (Q9Y5S8 whole entry): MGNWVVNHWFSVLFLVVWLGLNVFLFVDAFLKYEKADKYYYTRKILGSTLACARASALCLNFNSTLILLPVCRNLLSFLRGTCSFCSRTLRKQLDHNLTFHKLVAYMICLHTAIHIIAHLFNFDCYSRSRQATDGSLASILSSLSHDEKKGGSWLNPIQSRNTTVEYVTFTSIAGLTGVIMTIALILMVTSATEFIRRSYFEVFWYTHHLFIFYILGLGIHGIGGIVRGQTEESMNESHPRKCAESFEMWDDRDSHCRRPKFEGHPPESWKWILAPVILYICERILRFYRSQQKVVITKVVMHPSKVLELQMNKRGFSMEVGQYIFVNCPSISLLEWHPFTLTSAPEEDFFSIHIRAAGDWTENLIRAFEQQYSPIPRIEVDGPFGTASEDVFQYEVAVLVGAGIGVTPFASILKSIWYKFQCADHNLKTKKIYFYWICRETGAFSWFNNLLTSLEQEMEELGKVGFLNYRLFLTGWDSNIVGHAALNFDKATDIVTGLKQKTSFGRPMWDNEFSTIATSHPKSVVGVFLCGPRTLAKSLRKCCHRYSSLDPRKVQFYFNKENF
hNOX1, sequence (P13498 whole entry partner): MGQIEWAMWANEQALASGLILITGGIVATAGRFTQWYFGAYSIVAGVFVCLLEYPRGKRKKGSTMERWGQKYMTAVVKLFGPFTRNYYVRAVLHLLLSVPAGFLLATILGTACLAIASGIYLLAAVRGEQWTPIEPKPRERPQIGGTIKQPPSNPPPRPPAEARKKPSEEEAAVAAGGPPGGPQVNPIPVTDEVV

This experiment has as its target hNOX1 (Homo sapiens (Human), UniProt Q9Y5S8). The experiment in a line: ROS production measurement on hNOX1 membranes (Amplex Red fluorescence assay, assay 1). The experiment is classed as biochemical. The settings on record: assay 1: membranes from CHO cells overexpressing hNox1, Amplex Red/HRP fluorescence, NADPH 30 μM; non linear regression (GraphPad Prism); read-out: Nox1 inhibitory constant Ki. The method, then:
Reactive oxygen species (ROS) production generated by hNOX1 enzyme was measured by fluorescence in both cellular and membrane-based assays using the Amplex® Red reagent. In the presence of horseradish peroxidase (HRP), the Amplex® Red reagent (10-acetyl-3,7-dihydroxyphenoxazine, AR), which is a colorless and nonfluorescent derivative of dihydroresorufin, reacts with H2O2 with a 1:1 stoichiometry to produce highly fluorescent resorufin at an excitation and emission wavelengths of 544 nm and 590 nm, respectively.
After resuspension in sonication buffer (11% sucrose, 120 mM NaCl, 1 mM EGTA in PBS, pH 7.4), cells were broken by sonication and centrifuged (200 g, 10 min). The supernatant was layered onto a 17/40% (w/v) discontinuous sucrose gradient and centrifuged (150,000 g for 30 min). Membrane fractions were collected from the 17/40% interface, aliquoted in 10 μl samples and were stored at −80° C. Protein concentration was determined with Bradford reagent. Flavin Adenine Dinucleotide (FAD) (catalog # F6625-500MG), MgCl2 (catalog # M8266-100G), Phosphatidic Acid (PA) (catalog # P3591-50MG) were purchased from Sigma-Aldrich. […] NADPH (catalog #A1395, 0500) was purchased from Applichem. Amplex red (AR) (catalog # A22177) was purchased from Invitrogen. […] FLUOstar OPTIMA microplate reader was supplied by BMG Labtech (Germany). Zephyr® Compact Liquid Handling Workstation was supplied by PerkinElmer (Germany).
Assay 1: ROS Production Measurement on hNOX1 Membranes
All solutions were placed on ice and protected from light.
The NADPH was dissolved in water at a concentration of 12 mM and was transferred in a metal transfer plate kept at 4° C. The NADPH was added to the assay plate to initiate the reaction just before the measurement.
Serial dilution (1:3, 10 serial dilution) of the compounds was performed in 100% DMSO in 96 well polypropylene plate—Row B-H […], Row A, Column 1-10 contained reference compound. Starting concentration was 10^−2 M (10 mM). Final concentration in assay was 10^−4 M (100 μM). Compounds were diluted twice in PBS buffer by transferring 30 μl/well of PBS into 30 μl/well compounds sample in DMSO using Zephyr® Compact Liquid Handling Workstation. Control wells-columns 1 and 12-contained 60 μl DMSO in 50% PBS pH7.
Reaction mixture is dispensed using Zephyr® Compact Liquid Handling Workstation. 90 μl of mix with membrane were dispensed into 96 well black plates—Column 2-11, Column 1 Row A-D, Column 12 Row E-H. 90 μl of control mix were dispensed into assay plate—Column 1 Row E-H, Column 12 Row A-D, which are wells for measuring background signal. 2 μl of compounds were dispensed into each well of assay plate using Zephyr® Compact Liquid Handling Workstation. The reaction mixture with compounds was incubated in assay plates for 20 min at 37° C. in a Titramax microplate incubator with gentle agitation. 10 μl of NADPH is dispensed to the assay plate. Fluorescence reading was recorded with the FLUOstar OPTIMA microplate reader for 10 min at 37° C. (8 cycles, 1 cycle duration 55 sec).
In general, Ki refers to the dissociation constant of the complex between target and ligand, obtained from inhibition or displacement. For `COc1cc(C(=O)Nc2nnc(-c3ccncc3)s2)ccc1O[C@@H](CO)c1ccccc1` [Example 7, (R)-4-(2-hydroxy-1-phenylethoxy)-3-methoxy-N-(5-(pyridin-4-yl)-1,3,4-thiadiazol-2-yl)benzamide], the Ki was 22 nM.
For `COc1cc(C(=O)Nc2nnc(-c3ccncc3)s2)ccc1O[C@@H](CCN1CCCC1)c1ccccc1` [Example 9, (S)-3-methoxy-4-(1-phenyl-3-(pyrrolidin-1-yl)propoxy)-N-(5-(pyridin-4-yl)-1,3,4-thiadiazol-2-yl)benzamide] the value was 29 nM.
Turning to `COc1cc(C(=O)Nc2nnc(-c3ccncc3)s2)ccc1O[C@@H](CN1CCCC1)c1ccccc1` [Example 10, (R)-3-methoxy-4-(1-phenyl-2-(pyrrolidin-1-yl)ethoxy)-N-(5-(pyridin-4-yl)-1,3,4-thiadiazol-2-yl)benzamide], the Ki was 49 nM.
For `COc1cc(C(=O)Nc2nnc(-c3ccncc3)s2)ccc1OCc1nccn1C` [Example 19, 3-methoxy-4-((1-methyl-1H-imidazol-2-yl)methoxy)-N-(5-(pyridin-4-yl)-1,3,4-thiadiazol-2-yl)benzamide] the value was 220 nM; for `COCCNc1cc(C(=O)Nc2nnc(-c3ccncc3)s2)cnc1O[C@@H](C)c1ccccc1` [Example 22, (S)-5-((2-methoxyethyl)amino)-6-(1-phenylethoxy)-N-(5-(pyridin-4-yl)-1,3,4-thiadiazol-2-yl)nicotinamide], 18 nM.
For the compound `CN1CCN(c2cc(C(=O)Nc3nnc(-c4ccncc4)s3)cnc2OCc2ccccc2)CC1` [Example 24, 6-(benzyloxy)-5-(4-methylpiperazin-1-yl)-N-(5-(pyridin-4-yl)-1,3,4-thiadiazol-2-yl)nicotinamide], the Ki was found to be 62 nM.
As for `CC(C)(O)[C@H](Oc1ncc(C(=O)Nc2nnc(-c3ccncc3)s2)cc1Cl)c1ccccc1` [Example 29, (R)-5-chloro-6-(2-hydroxy-2-methyl-1-phenylpropoxy)-N-(5-(pyridin-4-yl)-1,3,4-thiadiazol-2-yl)nicotinamide], the Ki is 64 nM.
The result for `CC(Cc1ccccc1)Oc1ccc(C(=O)Nc2nnc(-c3ccncc3)s2)cn1` (centres unmarked) [Example 34, 6-((1-phenylpropan-2-yl)oxy)-N-(5-(pyridin-4-yl)-1,3,4-thiadiazol-2-yl)nicotinamide] reads 45 nM.
The result for `C[C@H](Oc1ncc(C(=O)Nc2nnc(-c3ccncc3)s2)cc1OCC1CCOCC1)c1ccccc1` [Example 37, (S)-6-(1-phenylethoxy)-N-(5-(pyridin-4-yl)-1,3,4-thiadiazol-2-yl)-5-((tetrahydro-2H-pyran-4-yl)methoxy)nicotinamide] reads 38 nM; that for `O=C(Nc1nnc(-c2ccncc2)s1)c1ccc(O[C@@H](CN2CCOCC2)c2ccccc2)nc1` [Example 39, (R)-6-(2-morpholino-1-phenylethoxy)-N-(5-(pyridin-4-yl)-1,3,4-thiadiazol-2-yl)nicotinamide], 100 nM.
For `COc1cc(C(=O)Nc2nnc(-c3ccncc3)s2)ccc1CN1Cc2ccccc2C1` [Example 40, 4-(isoindolin-2-ylmethyl)-3-methoxy-N-(5-(pyridin-4-yl)-1,3,4-thiadiazol-2-yl)benzamide] the value was 190 nM.
